# Test results as given in patent US10695333B2 (NOVARTIS AG, priority 2017, dated 2020).
# Values joined by “and” are separate entries in the source; they are usually repeats but may differ in a detail not shown here. Equal entries are not always repeated. Marks after values point to notes of the source that are not given here.
# Legend:
# MCF-7 xenograft [1] = assay: Orthotopic MCF-7 xenograft model in NSG mice; format: in vivo, mouse; details: for Tumor response in words: LSZ102 20 mg/kg QD, tamoxifen 60 mg/kg, fulvestrant 5 mg/mouse
# Protocol: Mice were supplemented with estradiol (0.72 mg estradiol/90-day release pellets) to further support MCF-7 tumor growth several days prior to cell implantation.
# HBRX1298 xenograft = assay: ER+ primary breast cancer model HBRX1298 in NSG mice; format: in vivo, mouse; details: Day 63
# Protocol: HBRX1298 tumors were established in NSG female mice by injection of a tumor brei into the inguinal mammary fat pad area. Mice were implanted with 0.72 mg estradiol/90-day release pellets several days prior to cell implantation. […] The 80 mg/kg QD dose inhibited tumor volumes close to the extent observed in mice with estradiol pellet removal (% ΔT/ΔC=32% and 21%, respectively; p<0.05).
# MCF-7 xenograft [2] = assay: Dose fractionation study in mice with MCF-7 xenografts; format: in vivo, mouse; details: for Tumor response ΔT/ΔC / Tumor response Regression: Day 61
# ERα = target: T1, ERα (Homo sapiens, UniProt P03372); details: MCF-7 parental cells, 24 hr treatment
# T1 sequence (P03372 1-595): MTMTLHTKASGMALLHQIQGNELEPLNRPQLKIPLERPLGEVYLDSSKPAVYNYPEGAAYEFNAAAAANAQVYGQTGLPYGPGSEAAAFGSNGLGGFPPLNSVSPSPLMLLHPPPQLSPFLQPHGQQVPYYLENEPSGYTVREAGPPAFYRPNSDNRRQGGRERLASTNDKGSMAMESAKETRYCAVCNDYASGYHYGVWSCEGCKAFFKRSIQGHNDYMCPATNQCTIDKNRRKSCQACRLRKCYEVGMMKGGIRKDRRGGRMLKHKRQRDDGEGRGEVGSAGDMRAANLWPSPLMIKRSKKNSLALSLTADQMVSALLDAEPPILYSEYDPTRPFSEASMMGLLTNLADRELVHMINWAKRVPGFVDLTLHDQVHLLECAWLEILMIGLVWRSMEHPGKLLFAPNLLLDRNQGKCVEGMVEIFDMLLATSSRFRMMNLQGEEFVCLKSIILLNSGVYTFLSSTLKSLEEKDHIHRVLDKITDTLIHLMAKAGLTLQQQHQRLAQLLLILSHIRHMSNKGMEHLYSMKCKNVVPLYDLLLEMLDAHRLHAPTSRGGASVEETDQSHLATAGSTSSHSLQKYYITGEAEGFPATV
# [3] = tested on: MCF-7 parental (ER wildtype) cells; assay: cells; details: Homo sapiens, MCF7, 168 h, read-out: MCF-7 proliferation Ave IC50, ESR1 WT
# Protocol: Cell viability was determined by CellTiter-Glo (CTG) assay after 7 days of compound treatment. […] IC50 nM values were calculated using the XLfit software and are defined as the inflection point of the fitted inhibition curves.
# MCF-7 xenograft [4] = assay: LSZ102 with alpelisib in orthotopic MCF-7 breast cancer model in mice; format: in vivo, mouse; details: Day 62
# [5] = tested on: ER regulated transcripts GREB1 and PGR; assay: GREB1 and PGR mRNA in MCF-7 tumors after final dose; format: in vivo, mouse; details: higher dose levels, tumors collected 24 hours after final treatment on day 61, normalized to B2M
# Description: Data is plotted for individual animals and is normalized to expression of beta-2 microglobulin (B2M).
# [6] = Phase I/Ib study, safety and tolerability; format: in vivo, human
# Description: (§1) Eligible patients, ≥18 years old, have histologically confirmed ER+ breast cancer that has progressed after endocrine therapy for metastatic or locally advanced disease or recurrence while on, or within 12 months of the end of adjuvant treatment with an aromatase inhibitor. […] As of Jul. […] As of Jul. 23, 2018, 13 patients continued ongoing treatment and 3 patients discontinued due to progressive disease.
# [7] = tested on: advanced or metastatic ER+ breast cancer; assay: Phase I/Ib study, anti-tumor activity; format: in vivo, human
# Description: as §1
# clinical = details: human, in vivo
# Description: Secondary objectives are to evaluate preliminary anti-tumor activity and looking at overall response rate (ORR), duration of response (DOR), progression-free survival (PFS), disease control rate (DCR), pharmacokinetics (PK) and pharmacodynamics (PD).
# [8] = tested on: ER target genes GREB1 and PGR; assay: qRT-PCR of ER target genes in MCF-7 WT cells
# [9] = 60 mg/kg PO QD x 5 days x QWeek, Day 48
# [10] = All Arm A treatment period patients (N = 73)
# [11] = LSZ102 single agent arm (n = 74)
# [12] = All LSZ102 single agent arm patients, evaluable n = 72
smiles,measurement,setting,value
"C[C@]12CC[C@@H]3c4ccc(O)cc4C[C@@H](CCCCCCCCC[S+]([O-])CCCC(F)(F)C(F)(F)F)[C@H]3[C@@H]1CC[C@@H]2O (some centres unmarked) [Fulvestrant, reference compound]",Tumor response ΔT/ΔC,"MCF-7 xenograft [1]; 5 mg/mouse SC QWeek, Day 48",24* %
same,Tumor response in words,MCF-7 xenograft [1],suppression of growth
same,Tumor response ΔT/ΔC,HBRX1298 xenograft; 5 mg/mouse SC QWeek,48* %
same,Tumor response ΔT/ΔC,MCF-7 xenograft [2]; 5 mg/mouse SC QWeek,18* %
same,ER protein levels (immunoblot),ERα,significantly reduce ER protein levels
same,IC50,[3],2.6 nM
"Cc1nc(NC(=O)N2CCC[C@H]2C(N)=O)sc1-c1ccnc(C(C)(C)C(F)(F)F)c1 [BYL719, reference compound]",Tumor response ΔT/ΔC,MCF-7 xenograft [4]; BYL719 20 mg/kg QD PO,38%
"CC/C(=C(\c1ccccc1)c1ccc(OCCN(C)C)cc1)c1ccccc1 [Tamoxifen, reference compound]",Tumor response Regression,MCF-7 xenograft [1]; [9],1* %
same,Tumor response ΔT/ΔC,MCF-7 xenograft [1]; [9],−0.8* %
same,Tumor response in words,MCF-7 xenograft [1],tumor stasis
same,Tumor response ΔT/ΔC,HBRX1298 xenograft; 40 mg/kg PO QD,59%
same,Tumor response Regression,MCF-7 xenograft [2]; 60 mg/kg PO 5QW,11* %
same,Tumor response ΔT/ΔC,MCF-7 xenograft [2]; 60 mg/kg PO 5QW,−4* %
"CC(F)(F)c1cc(F)ccc1-c1sc2cc(O)ccc2c1Oc1ccc(/C=C/C(=O)O)cc1 [LSZ102, (E)-3-(4-((2-(2-(1,1-difluoroethyl)-4-fluorophenyl)-6-hydroxybenzo[b]thiophen-3-yl)oxy)phenyl)acrylic acid]",Tumor response ΔT/ΔC,"MCF-7 xenograft [1]; 1 mg/kg PO QD, Day 48",56%
same,Tumor response ΔT/ΔC,"MCF-7 xenograft [1]; 3 mg/kg PO QD, Day 48",51%
same,Tumor response ΔT/ΔC,"MCF-7 xenograft [1]; 10 mg/kg PO QD, Day 48",25%
same,Tumor response ΔT/ΔC,"MCF-7 xenograft [1]; 20 mg/kg PO QD, Day 48",2.4% and 2* %
same,Tumor response in words,MCF-7 xenograft [1],tumor stasis was achieved and maintained for 48 days
same,Tumor response ΔT/ΔC,HBRX1298 xenograft; 20 mg/kg PO QD,45* %
same,Tumor response ΔT/ΔC,HBRX1298 xenograft; 80 mg/kg PO QD,32%
same,Tumor response ΔT/ΔC,MCF-7 xenograft [2]; 5 mg/kg PO BID,11* %
same,Tumor response ΔT/ΔC,MCF-7 xenograft [2]; 10 mg/kg PO BID,−1* %
same,Tumor response ΔT/ΔC,MCF-7 xenograft [2]; 10 mg/kg PO QD,16* %
same,Tumor response Regression,MCF-7 xenograft [2]; 20 mg/kg PO QD,5* %
same,Tumor response ΔT/ΔC,MCF-7 xenograft [2]; 20 mg/kg PO QD,−2* %
same,Tumor response Regression,MCF-7 xenograft [2]; 40 mg/kg PO BID,21* %
same,Tumor response ΔT/ΔC,MCF-7 xenograft [2]; 40 mg/kg PO BID,−8* %
same,Tumor response Regression,MCF-7 xenograft [2]; 80 mg/kg PO QD,31* %
same,Tumor response ΔT/ΔC,MCF-7 xenograft [2]; 80 mg/kg PO QD,−11* %
same,Efficacy of QD dosing versus split-dose BID dosing,"MCF-7 xenograft [2]; MCF-7 xenografts, FIG. 8A",equivalent efficacy
same,Inhibition of GREB1 and PGR mRNA levels in tumors,[5],stronger inhibition
same,Tumor response ΔT/ΔC,"MCF-7 xenograft [4]; LSZ102 10 mg/kg QD PO, 10 mg/kg",13%
same,"DLT alanine aminotransferase increase, number of patients",[6]; 450 mg QD with food group,one
same,"DLT aspartate aminotransferase increase, number of patients",[6]; 450 mg QD with food group,one
same,"DLT vomiting, number of patients",[6]; 600 mg QD fasted group,one
same,"DLT diarrhea, number of patients",[6]; 900 mg QD fasted group,two
same,"Constipation, G1",[6]; [10],7 (9.6) n (%)
same,"Constipation, G2",[6]; [10],1 (1.4) n (%)
same,"Constipation, G3",[6]; [10],0 n (%)
same,"Decrease appetite, G1",[6]; [10],11 (15.1) n (%)
same,"Decrease appetite, G2",[6]; [10],2 (2.7) n (%)
same,"Decrease appetite, G3",[6]; [10],0 n (%)
same,"Diarrhea, G1",[6]; [10],25 (34.2) n (%)
same,"Diarrhea, G2",[6]; [10],11 (15.1) n (%)
same,"Diarrhea, G3",[6]; [10],3 (4.1) n (%)
same,"Fatigue, G1",[6]; [10],5 (6.8) n (%)
same,"Fatigue, G2",[6]; [10],3 (4.1) n (%)
same,"Fatigue, G3",[6]; [10],0 n (%)
same,"Nausea, G1",[6]; [10],32 (43.8) n (%)
same,"Nausea, G2",[6]; [10],10 (13.7) n (%)
same,"Nausea, G3",[6]; [10],2 (2.7) n (%)
same,"Suspected related AEs, Total, G1",[6]; [10],38 (52.1) n (%)
same,"Suspected related AEs, Total, G2",[6]; [10],20 (27.4) n (%)
same,"Suspected related AEs, Total, G3",[6]; [10],7 (9.6) n (%)
same,"Vomiting, G1",[6]; [10],14 (19.2) n (%)
same,"Vomiting, G2",[6]; [10],4 (5.5) n (%)
same,"Vomiting, G3",[6]; [10],1 (1.4) n (%)
same,Discontinuation due to adverse event,[6]; [11],2 (2.7) n (%)
same,Tolerability,"[6]; oral single agent, doses up to 600 mg QD and up to 300 mg BID",well tolerated
same,"Drug-related diarrhea, any grade",[6]; single agent Arm A,53.4%
same,"Drug-related nausea, any grade",[6]; single agent Arm A,60.2%
same,"Drug-related vomiting, any grade",[6]; single agent Arm A,26.1%
same,Drug-related Grade 3 vomiting,"[6]; single agent Arm A, 1 patient",1.4%
same,Drug-related Grade 3 nausea,"[6]; single agent Arm A, 2 patients",2.7%
same,Drug-related Grade 3 diarrhea,"[6]; single agent Arm A, 3 patients",4.1%
same,"Dose limiting toxicities (DLTs), patients","[6]; single agent, all dose groups, four patients",5.9%
same,Patients requiring dose reduction due to AEs,"[6]; single agent, all gastrointestinal toxicities",seven
same,Complete response (CR),[7]; [12],0 n (%)
same,Disease control rate (DCR),[7]; [12],27 (37.5%) n (%)
same,Non-CR/Non-PD,[7]; [12],7 (9.7) n (%)
same,Overall response rate (ORR),[7]; [12],1 (1.4) n (%)
same,Partial response (PR),[7]; [12],1 (1.4) n (%)
same,Progressive disease (PD),[7]; [12],40 (55.6) n (%)
same,Response unknown,[7]; [12],6 (8.3) n (%)
same,Discontinuation due to progressive disease,[7]; [11],59 (79.7) n (%)
same,Disease control rate,[7]; single-agent LSZ102,37.5%
same,"Increase in exposure (AUC) with high fat, high calorie meal compared to fasted",clinical,~2 fold
same,Exposure versus dose,clinical; po,dose-proportional increases in LSZ102 exposure
same,Tmax,clinical; po,2 to 3 h
same,half-life,clinical; po,3.1 to 5.6 h
same,IC50,[3],5.2 nM
same,ESR1 mRNA levels,[8],not significantly reduced
same,mRNA expression of GREB1 and PGR,[8],dose response inhibition
